{
  "source": "patent US6448431B1",
  "about": "“Production of aryl carboxylate esters” (priority 1999, dated 2002)",
  "key": {"[1]": {"conditions": "cited from earlier work"}, "[2]": {"experiment": "Solubility of NOBS in selected solvents", "type": "physicochemical", "conditions": "23° C., grams of NOBS soluble in 100 grams of solution", "source_text": "The solvent properties of TFA are unique and highly advantageous in the synthesis of phenolsulfonate esters. […] It is notable that the only solvent in which NOBS is more soluble than water is TFA. I have found no better solvent for NOBS than TFA. This is surprising. […] It is likely that hydrogen bonding in TFA facilitates the solvation of sulfonate anions but it is notable, in contrast, that such effects are much weaker in acetic acid. Furthermore, while it is known in the art that dimethyl sulfoxide (DMSO) and dimethylformamide (DMF) are relatively good solvents for benzenesulfonate esters they are much weaker solvents than TFA and because TFA has a much lower boiling point than these dipolar aprotic solvents it is the only good solvent for benzenesulfonate esters which can be readily stripped from product solutions and then purified and recycled with relative ease."}},
  "data": [
    {"smiles": "O=C(O)C(F)(F)F", "note": "[CF3CO2H, trifluoroacetic acid]", "values": [
      {"measurement": "Aqueous pKa", "setting": "[1]", "value": 0.22}
    ]},
    {"smiles": "CCCCCCCCC(=O)Oc1ccc(S(=O)(=O)[O-])cc1.[Na+]", "note": "[NOBS, sodium 4-(nonanoyloxy)benzenesulfonate]", "values": [
      {"measurement": "Solubility of NOBS, wt % NOBS", "setting": "[2]; solvent DMF", "value": 10.1, "unit": "wt %"},
      {"measurement": "Solubility of NOBS, wt % NOBS", "setting": "[2]; solvent DMSO", "value": 15.9, "unit": "wt %"},
      {"measurement": "Solubility of NOBS, wt % NOBS", "setting": "[2]; solvent NMP", "value": 8.4, "unit": "wt %"},
      {"measurement": "Solubility of NOBS, wt % NOBS", "setting": "[2]; solvent TFA", "value": 23.4, "unit": "wt %"},
      {"measurement": "Solubility of NOBS, wt % NOBS", "setting": "[2]; solvent acetic acid", "value": 1.7, "unit": "wt %"},
      {"measurement": "Solubility of NOBS, wt % NOBS", "setting": "[2]; solvent acetone", "value": 0.02, "unit": "wt %"},
      {"measurement": "Solubility of NOBS, wt % NOBS", "setting": "[2]; solvent acetonitrile", "value": 0.01, "unit": "wt %"},
      {"measurement": "Solubility of NOBS, wt % NOBS", "setting": "[2]; solvent nonanoic acid", "value": 0.03, "unit": "wt %"},
      {"measurement": "Solubility of NOBS, wt % NOBS", "setting": "[2]; solvent water", "value": 22.8, "unit": "wt %"}
    ]}
  ]
}
